In data set [1] the test system is male Wistar rats. An excerpt:
Animals were trained to respond according to a modification of the discrete-trial current-threshold procedure of Kornetsky and Esposito (Fed Proc 38:2473-2476, 1979), which has been described in detail previously (Markou and Koob, 1992 Physiol Behav 51:111-119). Briefly, a trial was initiated by the delivery of a non-contingent electrical stimulus. […] The current intensity delivered was adjusted for each animal and typically ranged from 50 to 200 μA. […] After a variable inter-trial interval (7.5-12.5 sec, average of 10 sec), another trial was initiated with the delivery of a non-contingent electrical stimulus. […] Responding during the inter-trial interval delayed the onset of the next trial by 12.5 sec. Current levels were varied in alternating descending and ascending series. A set of three trials was presented for each current intensity. Current intensities were altered in 5 μA steps. In each testing session, four alternating descending-ascending series were presented. […] The overall threshold of the session was defined as the mean of the thresholds for the four individual series. Each testing session was ˜30 min in duration. The latency between the onset of the non-contingent stimulus and a positive response was recorded as the response latency. The response latency for each test session was defined as the mean response latency of all trials during which a positive response occurred. After establishment of stable ICSS reward thresholds, rats were tested in the ICSS procedure once daily except for the spontaneous nicotine withdrawal experiment when rats were tested at time-points according to the experimental design.
Systemic administration experiments. These experiments investigated whether nicotine withdrawal, as measured by elevations in ICSS thresholds, could be precipitated in nicotine-treated rats by systemic administration of an agonist at mGluII receptors (LY314582), an agonist at GABAB receptors (CGP44532), or antagonists at mGlu5 (MPEP), NMDA (MK-801) or AMPA/Kainate (NBQX) glutamate receptors. For each drug tested, rats were trained in the ICSS paradigm until stable baseline responding was achieved, defined as ≦10% variation in thresholds for 3 consecutive days and requiring approximately 14 days of daily testing. […] One group was then prepared with subcutaneous osmotic mini-pumps delivering vehicle and the second group with mini-pumps delivering 9 mg/kg/day nicotine hydrogen tartrate (3.16 mg/kg/day nicotine free base). There was a minimum seven-day interval after mini-pump implantation, during which ICSS reward thresholds continued to be measured daily, before the effect of any systemically administered drug on reward thresholds was evaluated.

The subject of data set [2] is Wistar rats. The data set can be described thus: Cocaine-induced lowering of ICSS thresholds. Format: in vivo, rat.
Data set [3] deals with male Wistar rats. Nature of the data set: Reward deficits during amphetamine withdrawal (ICSS thresholds, response latencies, body weight). As to the method:
Male Wistar rats (Charles River, Hollister, Calif.) (300-320 g at the start of the experiments) were housed in pairs in a temperature and humidity controlled environment with a 12 hr light/dark cycle. Food and water were available ad libitum. A different set of subjects was used for each experiment. All subjects were treated in accordance with the National Institutes of Health “Guide for the Care and Use of Laboratory Animals,” and the animal facilities and the experimental protocols were in accordance with the Association for the Assessment and Accreditation of Laboratory Animal Care. Most of the behavioral testing was conducted during the light phase of the subjects' light/dark cycle, unless otherwise dictated by the experimental design due to time-course assessment of behavioral parameters. Apparatus The experimental apparatus consisted of 16 Plexiglas chambers (30.5×30×17 cm) (Med Associates Inc., St. Albans, Vt.) encased in sound-attenuating boxes (San Diego Instruments, San Diego, Calif.). Each operant chamber consisted of a stainless steel grid floor and a metal wheel manipulandum located on one wall, which required a 0.2 N force to rotate it a quarter turn. Gold-contact swivel commutators and bipolar leads connected the animals in the stimulation circuit (Plastics One, Roanoke, Va.). Brain stimulation was administered by constant current stimulators (Stimtek 1200, San Diego Instruments, San Diego, Calif.). Surgical Procedure The rats were prepared with 11 mm stainless steel bipolar electrodes (Plastics One; diameter=0.25 mm) in the posterior lateral hypothalamus (AP −0.5 mm from bregma; L±1.7 mm; DV −8.3 mm from dura, with the incisor bar set at 5 mm above the interaural line; Pellegrino et al. 1979 under halothane anaesthesia (1-1.5% halothane/oxygen mixture). Subjects were allowed to recover for at least seven days before any behavioral testing. Half of the electrodes were positioned on the right hemisphere and the other half on the left hemisphere to counterbalance possible brain asymmetries. […] The subjects were initially trained to turn the wheel manipulandum on a fixed ratio 1 schedule of reinforcement. […] The current intensity delivered was adjusted for each animal and typically ranged from 100 to 200 μA. After successful familiarization with this procedure (2 sessions of 100 reinforcers in less than 20 minutes), the rats were gradually trained on a discrete-trial, current-threshold procedure. At the start of each trial rats received a non-contingent electrical stimulus. During the following 7.5 sec, the limited hold, if the subjects responded by turning the wheel manipulandum a quarter turn (positive response) they received a second, contingent stimulus identical to the previous non-contingent stimulus. During a 2 sec period immediately following a positive response, further responses were recorded as extra responses but had no consequence. If no response occurred during the 7.5 sec limited hold period a negative response was recorded. […] Stimulation intensities were varied according to the classical psychophysical method of limits. The subjects received four alternating series of ascending and descending current intensities starting with a descending series. Within each series the stimulus intensity was altered by 5 μA steps between each set of trials (three trials per set). After training in the above procedure, rats were tested until stable baseline thresholds had been achieved L+10% over a 5-day period). […] During the ascending series, the reverse situation defined the threshold. Thus, during each session, four current-thresholds were recorded and the mean of these values was taken as the current-threshold for each subject for each test session. Response Latency: The latency between the onset of the non-contingent stimulus and a positive response was recorded as the response latency. The response latency for each test session was defined as the mean response latency of all trials during which a positive response occurred. […]

The mark [4] stands for this setting: MK-801 0.01 mg/kg i.p., Nicotine-treated rats.
The mark [5] stands for this setting: MK-801 0.01 mg/kg i.p., Vehicle-treated rats.
The mark [6] stands for this setting: MK-801 0.03 mg/kg i.p., Nicotine-treated rats.
Setting [7] is: MK-801 0.03 mg/kg i.p., Vehicle-treated rats.
Setting [8] is: MK-801 0.1 mg/kg i.p., Nicotine-treated rats.
[9] abbreviates: MK-801 0.1 mg/kg i.p., Vehicle-treated rats.
Where [10] appears, read: MK-801 0.15 mg/kg i.p., Nicotine-treated rats.
Where [11] appears, read: MK-801 0.15 mg/kg i.p., Vehicle-treated rats.
Setting [12] is: MK-801 0.175 mg/kg i.p., Nicotine-treated rats.
Setting [13] is: MK-801 0.175 mg/kg i.p., Vehicle-treated rats.
Setting [14] is: MK-801 0.2 mg/kg i.p., Nicotine-treated rats.
The mark [15] stands for this setting: MK-801 0.2 mg/kg i.p., Vehicle-treated rats.
Where [16] appears, read: chronic amphetamine administration.

Counter-ions that a name gives are not always drawn. Like-named read-outs stand apart in the source and are kept apart here. Bounds are passed on as bounds.

Take `C[C@]12N[C@H](Cc3ccccc31)c1ccccc12` [MK-801, (5R,10S)-(+)-5-Methyl-10,11-dihydro-5H-dibenzo(a,d)cyclohepten-5,10-imine hydrogen maleate]: the “ICSS Thresholds” value in data set [1] (setting [4]) is given as 98.20 ± 6.1 percentage of baseline; in data set [1] (setting [5]), 95.99 ± 3.3 percentage of baseline; in data set [1] (setting [6]), 93.09 ± 3.9 percentage of baseline; in data set [1] (setting [7]) it was 92.54 ± 2.6 percentage of baseline; in data set [1] (setting [8]), 89.42 ± 3.6 percentage of baseline; in data set [1] (setting [9]) it was 88.48 ± 5.6 percentage of baseline. The “ICSS Thresholds” value in data set [1] (setting [10]) is given as 76.24 ± 4.7 percentage of baseline; in data set [1] (setting [11]), 87.14 ± 4.6 percentage of baseline; in data set [1] (setting [12]), 82.26 ± 3.7 percentage of baseline; in data set [1] (setting [13]) it was 93.64 ± 3.4 percentage of baseline; in data set [1] (setting [14]), 84.29 ± 3.0 percentage of baseline; in data set [1] (setting [15]) it was 82.47 ± 4.3 percentage of baseline. For the same molecule, the “ICSS response Latencies” value is 95.41 ± 2.3 percentage of baseline in data set [1] (setting [4]); 100.00 ± 2.5 percentage of baseline in data set [1] (setting [5]); 94.64 ± 3.6 percentage of baseline in data set [1] (setting [6]); 103.14 ± 2.1 percentage of baseline in data set [1] (setting [7]); 106.14 ± 4.4 percentage of baseline in data set [1] (setting [8]); 98.97 ± 3.9 percentage of baseline in data set [1] (setting [9]). For the same molecule, the “ICSS response Latencies” value in data set [1] (setting [10]) is given as 93.65 ± 3.6 percentage of baseline; in data set [1] (setting [11]), 101.60 ± 2.0 percentage of baseline; in data set [1] (setting [12]), 93.56 ± 4.2 percentage of baseline; in data set [1] (setting [13]), 119.22 ± 11.9 percentage of baseline; in data set [1] (setting [14]), 105.14 ± 1.9 percentage of baseline; in data set [1] (setting [15]), 119.21 ± 9.4 percentage of baseline. For the same molecule, the ICSS response Latencies entry in data set [1] (MK-801, p<0.05, particularly in control rats) is “did significantly increase response latencies”. The ICSS reward thresholds entry in data set [1] (MK-801 0.01-0.2 mg/kg) was “lowered reward thresholds in nicotine-treated and control rats”. Also, in data set [1] (MK-801, nicotine-treated rats), the “withdrawal-like elevations in reward thresholds” value was “did not precipitate withdrawal-like elevations in reward thresholds in nicotine-treated rats at any dose tested”. Also, in data set [1] (both groups, rats no longer responded for self-stimulation), the “Doses causing disruption in performance in the ICSS paradigm” value is no less than 0.2 mg/kg.
In the case of `COC(=O)[C@H]1[C@@H](OC(=O)c2ccccc2)C[C@@H]2CC[C@H]1N2C.Cl` [cocaine, Cocaine hydrochloride], the ICSS response Latencies entry in data set [2] (cocaine 10 mg/kg) was “significantly decreased ICSS response latencies”. For the same molecule, in data set [2] (cocaine 10 mg/kg i.p.), the ICSS Thresholds result is “significantly lowered ICSS thresholds”. Also, in data set [2] (cocaine 10 mg/kg, at 10 and 40 min after cocaine injection), the “ICSS thresholds, time course” value is given as “significantly lowered in cocaine-treated rats, pretreated with vehicle”.
`C[C@H](N)Cc1ccccc1` [amphetamine, d-Amphetamine sulfate]: the “reward thresholds during amphetamine withdrawal” value in data set [3] (amphetamine-exposed rats treated with vehicle) is “exhibited elevated thresholds at withdrawal hours 12, 36, 42, 60 and 84”. In addition, in data set [3] (setting [16]), the body weight entry is on record as “significantly reduced the body weight of animals” and the response latencies result is on record as “did not significantly differ from those of the saline-exposed rats at any stage during chronic drug treatment”. The reward thresholds entry in data set [3] (chronic amphetamine administration, four day treatment, 1-5 mg/kg three times a day) is on record as “significantly elevated thresholds”.
Turning to `NS(=O)(=O)c1cccc2c1c([N+](=O)[O-])cc1[nH]c(=O)c(=O)[nH]c12.[Na].[Na]` [NBQX, 2,3-dioxo-6-nitro-1,2,3,4-tetrahydrobenzo(f)quinoxaline-7-sulphonamide disodium], in data set [1] (NBQX 0.01-1 mg/kg), the ICSS response Latencies entry is recorded as “had no effect on response latencies in nicotine-treated or control rats at any dose tested”. In addition, the ICSS reward thresholds entry in data set [1] (NBQX 0.01-1 mg/kg) is “significantly altered ICSS reward thresholds in nicotine-treated but not control rats”; in data set [1] (NBQX 0.025-0.1 mg/kg, nicotine-treated rats), “elevated reward thresholds in nicotine-treated rats”; in data set [1] (NBQX 0.5-1 mg/kg, nicotine-treated rats), “did not significantly increase thresholds compared to vehicle treatment”.
